Several values for one entry are separate records, joined by “and”; a condition that tells them apart may be missing. Equal entries are not always repeated. Where two headings read alike, the source gives them in different places. Where a SMILES comes first, the peptide text is derived from it. Bridges are numbered along the chain shown (N, C = ends). [ ]: non-standard residue; d: D form. Orn(fluoroacetimidoyl) = N=C(CF)NCCC[C@H](N)C(=O)O; Cit = NC(=O)NCCC[C@H](N)C(=O)O
Experiments:
PADI4 [1] = target: T1, PADI4 (Homo sapiens, UniProt Q9UM07); assay: COLDER inhibition assay, BAEE substrate, with or without 1 h preincubation; assay type: biochemical; conditions: for IC50: COLDER; for remaining activity at 0.003 µM: peptide 0.003 µM; for remaining activity at 0.01 µM: peptide 0.01 µM; for remaining activity at 0.03 µM: peptide 0.03 µM; for remaining activity at 0.1 µM: peptide 0.1 µM; for remaining activity at 0.3 µM: peptide 0.3 µM; for remaining activity at 1 µM: peptide 1 µM; for remaining activity at 3 µM: peptide 3 µM; for remaining activity at 10 µM: peptide 10 µM; for remaining activity at 30 µM: peptide 30 µM
T1 construct: His6; made in house
Method: PADI4 citrullination activity was analysed using the COLDER assay in 96-well plates. Peptide dilutions were prepared from a 500 µM stock, to give a 10 times concentrated dilution series (500 µM, 300 µM, 100 µM, 30 µM, 10 µM, 3 µM, 1 µM, 0.3 µM, 0.1 µM and 0.03 µM) in COLDER buffer (50 mM HEPES, 150 mM NaCl and 2 mM DTT, pH 7.5) containing 1% DMSO. In triplicate, each was diluted 10-fold further when mixed with 50 nM His-PADI4, 0.6 mg/mL BSA and 10 mM CaCl2, in COLDER buffer. With or without one hour of incubation, 10 mM N^α-Benzoyl-L-arginine ethyl ester hydrochloride (BAEE, Merck) was added to initiate the reaction (50 µL final volume). After 30 min at rt, EDTA (50 mM final concentration) was used to quench the reaction and 200 µL of COLDER solution containing 20 mM Diacetyl monoxime/2,3-butanedione monoxime (Merck), 0.5 mM Thiosemicarbazide (Acros Organics), 2.25 M H3PO4, 4.5 M H2SO4 and 1.5 mM NH4Fe(SO4)2.12H2O was added to each well. Samples were incubated for 20 min at 95 °C before measuring absorbance at 540 nm on a CLARIOstar Plus (BMG LABTECH). Data analysis was performed with GraphPad Prism. Data are presented as the average ± standard error of the mean from at least two independent replicates.

PADI4 [2] = target: T1, PADI4; assay: Incubation time-dependent COLDER assay IC50(t), Krippendorff fit; assay type: biochemical; conditions: for IC50: replicates, read-out: apparent IC50; for Ki / kinact: Krippendorff fit of IC50 vs time
Method: To determine KI and kinact of covalent peptide inhibitors, COLDER assays were used[52]. Peptide dilutions were prepared using 5-fold dilutions from 500 µM and 300 µM to 0.8 µM and 2.4 µM, respectively, at 1% DMSO in COLDER buffer (50 mM HEPES, 150 mM NaCl and 2 mM DTT, pH 7.5). The 9 peptide dilutions were added to a 96-well plate, alongside a 1% DMSO control. An equal volume of 10 mM BAEE was added to each well and the solution was homogenised by pipette mixing. This was mixed with 50 nM His-PADI4, 0.6 mg/mL BSA and 10 mM CaCl2, in COLDER buffer, to bring the final volume to 300 µL in each well. Alternatively, His-PAD1 (100 nM) /His-PADI2 (100 nM) /His-PADI3 (250 nM) were used. For assays with PADI1 and PADI3, 10 mM N^α-benzoyl-L-arginine methyl […] (BAME) was used as the substrate instead of BAEE[48],[58],[59]. At 15-minute intervals, for 5 timepoints, 50 µL of solution was taken from each well and quenched with 10 µL EDTA (300 mM). 200 µL of COLDER solution containing 20 mM diacetyl monoxime/2,3-butanedione monoxime (Merck), 0.5 mM thiosemicarbazide (Acros Organics), 2.25 M H3PO4, 4.5 M H2SO4 and 1.5 mM NH4Fe(SO4)2.12H2O was added to each well. Samples were incubated for 20 min at 95 °C before measuring absorbance at 540 nm on a CLARIOstar Plus (BMG LABTECH). IC50 values for each time point were determined using non-linear regression with GraphPad Prism. Incubation time–dependent potency IC50(t) against incubation time was fitted to the Krippendorff equation (below) to determine KI and kinact using a Python script[53],[59]. […] IC50t=KI1+S/KM⋅2−2e^−ηIC50⋅kinact⋅t/ηIC50⋅kinact⋅t−1 WhereηIC50=IC50t/KI1+S/KM+IC50t

PADI4 [3] = target: T1, PADI4; assay: Surface plasmon resonance (SPR), single cycle kinetics; assay type: binding; conditions: for Ki: k-1/k+1
Method: S8. Surface plasmon resonance (SPR)
Using a Biacore S200 (GE Healthcare), biotinylated His-PADI4 (80 nM) was immobilised on a CAP chip (GE Healthcare) to a response unit of approx. 3000. At 25 °C, single cycle kinetics mode was used with 5 samples of a 3-fold dilution series of peptides PADI4_3_H4(2), cP4_2, […]
mM HEPES, 150 mM NaCl, 10 mM CaCl2, 0.05% Tween-20, 0.1% DMSO (pH 7.5). After each cycle, regeneration of the chip was carried out as per the manufacturer’s protocol. Data were analysed with the Biacore S200 Evaluation Software, each in triplicate. Warhead-containing peptides were analysed using the two-state reaction model, with the rate constant for the reverse second step (k-2) set to zero. The equilibrium constant of the reversible binding step, Ki, was calculated as the ratio of k-1/k+1 and the rate constant of the irreversible chemical step, kinact, as k+2. The Arg4, Cit4 and Me4 peptides were fitted using a 1:1 binding model. […]

[4] = 1 h preincubation of peptide and PADI4, 10 mM CaCl2, read-out: IC50 Values 1 h preincubation
[5] = no preincubation of peptide and PADI4, 10 mM CaCl2, read-out: IC50 Values 0 h preincubation
[6] = T=0, values starred, read-out: PADI4 activity normalised to 0.1% DMSO
[7] = T=1, read-out: PADI4 activity normalised to 0.1% DMSO
[8] = T=0, read-out: PADI4 activity normalised to 0.1% DMSO
[9] = each replicate, read-out: k2 / kinact
[10] = two-state reaction model, k+2, read-out: SPR kinact (converted)
[11] = no preincubation, read-out: PADI4 activity, normalised (Figure 4b dose-response)

T1 sequence (Q9UM07 whole entry): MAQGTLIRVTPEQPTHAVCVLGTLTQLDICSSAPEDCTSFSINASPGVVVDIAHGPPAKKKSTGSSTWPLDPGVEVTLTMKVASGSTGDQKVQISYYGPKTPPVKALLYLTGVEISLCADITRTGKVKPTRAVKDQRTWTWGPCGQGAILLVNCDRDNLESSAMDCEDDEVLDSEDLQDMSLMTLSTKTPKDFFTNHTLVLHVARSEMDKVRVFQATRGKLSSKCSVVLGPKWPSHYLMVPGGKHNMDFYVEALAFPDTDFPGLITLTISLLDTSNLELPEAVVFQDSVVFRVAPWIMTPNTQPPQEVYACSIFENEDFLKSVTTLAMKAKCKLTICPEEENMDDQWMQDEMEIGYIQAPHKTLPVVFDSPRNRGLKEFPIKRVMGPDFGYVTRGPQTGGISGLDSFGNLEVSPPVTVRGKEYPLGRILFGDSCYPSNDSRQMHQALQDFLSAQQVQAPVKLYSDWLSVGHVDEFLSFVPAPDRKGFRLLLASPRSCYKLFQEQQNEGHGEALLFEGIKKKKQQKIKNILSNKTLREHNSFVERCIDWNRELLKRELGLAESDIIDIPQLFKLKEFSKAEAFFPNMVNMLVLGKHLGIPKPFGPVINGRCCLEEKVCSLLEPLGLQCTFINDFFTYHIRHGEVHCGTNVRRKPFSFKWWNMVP

IC50 (PADI4 [1]; [4]) | IC50 (PADI4 [1]; [5]) | remaining activity at 0.003 µM (PADI4 [1]; [6]) | remaining activity at 0.003 µM (PADI4 [1]; [7]) | remaining activity at 0.01 µM (PADI4 [1]; [6]) | remaining activity at 0.01 µM (PADI4 [1]; [7]) | remaining activity at 0.1 µM (PADI4 [1]; [8]) | remaining activity at 1 µM (PADI4 [1]; [8]) | kinact/KI (PADI4 [2]) | IC50 (PADI4 [2]; 15 mins) | IC50 (PADI4 [2]; 30 mins) | IC50 (PADI4 [2]; 45 mins) | IC50 (PADI4 [2]; 60 mins) | IC50 (PADI4 [2]; 75 mins) | Ki (PADI4 [2]) | kinact (PADI4 [2]) | kinact/KI (PADI4 [3]) | kinact (PADI4 [3]; [9]) | kinact (PADI4 [3]; [10]) | Ki (PADI4 [3]; two-state reaction model) | Structure (SMILES) | also measured
0.17 ± 0.01 µM | 11.8 ± 4.9 µM | 97.2% | 95% | 94.1% | 89% | 99.6% | 97% | 283 M⁻¹ s⁻¹ | 51.7 µM and 33.8 µM and 43.9 µM | 22.5 µM and 16.4 µM and 14.6 µM | 13.7 µM (2×) and 11.2 µM | 11.9 µM and 10 µM and 8.76 µM | 9.43 µM and 9.54 µM and 8.45 µM | 8.9 ± 1.1 µM | 0.00267 s⁻¹ | 1780 M⁻¹ s⁻¹ | 0.0013 s⁻¹ | 0.0011 s⁻¹ | 0.62 ± 0.06 µM | CC[C@H](C)[C@H](NC(=O)[C@H](Cc1c[nH]c2ccccc12)NC(=O)[C@H](CCC(=O)O)NC(=O)[C@@H]1CSCC(=O)N[C@H](Cc2ccc(O)cc2)C(=O)N[C@@H](C(C)C)C(=O)N[C@@H](Cc2ccc(O)cc2)C(=O)N[C@@H](CCCNC(=N)CF)C(=O)N[C@@H](CC(=O)O)C(=O)N1)C(=O)N[C@@H](CC(N)=O)C(=O)N[C@@H](CCCNC(=N)N)C(=O)N[C@@H](C)C(=O)NCC(N)=O [cP4_165, yVY(2)DCEWINRAG] ({CH2CO}-[dY]VY[Orn(fluoroacetimidoyl)]DCEWINRAG-NH2; thioether N-6) | remaining activity at 0.03 µM (PADI4 [1]; [8]): 97.8%; remaining activity at 0.3 µM (PADI4 [1]; [8]): 99.2%; remaining activity at 0.3 µM (PADI4 [1]; [7]): 24.1%
0.16 ± 0.02 µM | 8 ± 1.2 µM | 99.1% | 99.2% | 99.2% |  | 100% | 93.8% | 300 M⁻¹ s⁻¹ | 27.7 µM and 48.2 µM and 40.3 µM | 12.5 µM and 21.4 µM and 18.5 µM | 8.85 µM and 10 µM and 8.94 µM | 6.22 µM and 7.03 µM and 7.47 µM | 5.35 µM and 5.67 µM and 6.53 µM | 4.3 ± 1.1 µM | 0.00128 s⁻¹ | 5720 M⁻¹ s⁻¹ | 0.0086 s⁻¹ | 0.00917 s⁻¹ | 1.6 ± 0.1 µM | CC(C)[C@@H]1NC(=O)[C@@H](Cc2ccc(O)cc2)NC(=O)CSC[C@@H](C(=O)NCC(N)=O)NC(=O)[C@H](Cc2ccc(O)cc2)NC(=O)[C@H](CCCCN)NC(=O)[C@H](Cc2c[nH]c3ccccc23)NC(=O)[C@H](CCC(=O)O)NC(=O)[C@H](CCCCN)NC(=O)[C@H](CCCNC(=N)CF)NC(=O)[C@H](CO)NC(=O)[C@H](Cc2ccc(O)cc2)NC1=O [cP4_7, yVYS(2)KEWKYCG] ({CH2CO}-[dY]VYS[Orn(fluoroacetimidoyl)]KEWKYCG-NH2; thioether N-11) | remaining activity at 3 µM (PADI4 [1]; [8]): 79%; remaining activity at 10 µM (PADI4 [1]; [8]): 49.3%; remaining activity at 30 µM (PADI4 [1]; [8]): 20.9%; k2 / kinact (PADI4 [3]; each replicate): 0.0094 s⁻¹
0.065 ± 0.007 µM |  | 103% | 102% | 100% | 83.7% | 101% | 77.4% | 2480 M⁻¹ s⁻¹ | 5.47 µM and 4.15 µM and 5.26 µM | 2.46 µM and 1.82 µM and 2 µM | 1.86 µM and 1.33 µM and 1.52 µM | 1.43 µM and 1.06 µM and 1.16 µM | 1.24 µM and 1.01 µM and 1.09 µM | 1.1 ± 0.2 µM | 0.00267 s⁻¹ | 68000 M⁻¹ s⁻¹ | 0.001 s⁻¹ | 0.00102 s⁻¹ | 0.015 ± 0.002 µM | N=C(N)NCCC[C@@H]1NC(=O)[C@H](Cc2ccc(O)cc2)NC(=O)[C@H](Cc2c[nH]cn2)NC(=O)[C@H](CCCNC(=N)CF)NC(=O)[C@H](CC(=O)O)NC(=O)[C@H](CCCNC(=N)N)NC(=O)[C@@H](Cc2ccc(O)cc2)NC(=O)CSC[C@@H](C(=O)NCC(N)=O)NC(=O)[C@H](Cc2ccc(O)cc2)NC(=O)[C@H](CCCCN)NC(=O)[C@@H]2CCCN2C(=O)[C@H](Cc2c[nH]cn2)NC1=O [PADI4_3_H4(2), yRD(2)HYRHPKYCG] ({CH2CO}-[dY]RD[Orn(fluoroacetimidoyl)]HYRHPKYCG-NH2; thioether N-12) | remaining activity at 0.03 µM (PADI4 [1]; [8]): 102%; remaining activity at 0.03 µM (PADI4 [1]; [7]): 82.9%; remaining activity at 0.1 µM (PADI4 [1]; [7]): 29%; remaining activity at 0.3 µM (PADI4 [1]; [8]): 96.2%; remaining activity at 3 µM (PADI4 [1]; [8]): 41.2%; remaining activity at 10 µM (PADI4 [1]; [8]): 18.1%; k2 / kinact (PADI4 [3]; each replicate, listed as P4_3_H4(2)): 0.0013 s⁻¹
 | > 100 µM |  |  |  |  |  |  |  |  |  |  |  |  |  |  |  |  |  |  | N=C(N)NCCC[C@@H]1NC(=O)[C@H](CCCNC(N)=O)NC(=O)[C@H](CC(=O)O)NC(=O)[C@H](Cc2ccc(O)cc2)NC(=O)[C@H](CCCCN)NC(=O)[C@H](CO)NC(=O)[C@@H](Cc2ccc(O)cc2)NC(=O)CSC[C@@H](C(=O)NCC(N)=O)NC(=O)[C@H](CC(=O)O)NC(=O)[C@H](CCCNC(=N)N)NC(=O)[C@@H]2CCCN2C(=O)[C@H](CO)NC1=O [Cit4] ({CH2CO}-[dY]SKYD[Cit]RSPRDCG-NH2; thioether N-12) | remaining activity at 0.003 µM (PADI4 [1]; [11]): 96.7%; remaining activity at 0.03 µM (PADI4 [1]; [11]): 95.6%; remaining activity at 0.1 µM (PADI4 [1]; [11]): 99.7%; remaining activity at 0.3 µM (PADI4 [1]; [11]): 103%; remaining activity at 3 µM (PADI4 [1]; [11]): 101%; remaining activity at 10 µM (PADI4 [1]; [11]): 108%; remaining activity at 30 µM (PADI4 [1]; [11]): 103%; remaining activity at 50 µM (PADI4 [1]; peptide 50 µM, no preincubation, read-out: PADI4 activity, normalised (Figure 4b dose-response)): 107%; Kd (PADI4 [3]; reversible binding, 1:1 binding model): > 10 µM

— publication PMC11659602, “Discovering covalent cyclic peptide inhibitors of peptidyl arginine deiminase 4 (PADI4) using mRNA-display with a genetically encoded electrophilic warhead” (Communications Chemistry, 2024)
